Values quoted from earlier work as cited in patent publication US20250017894A1, “Formulation for Nasal Delivery of Cannabinoids” (priority 2019, published 2025).

For `C=C(C)[C@@H]1CCC(C)=C[C@H]1c1c(O)cc(CCCCC)cc1O` [CBD, Cannabidiol], the “bioavailability, inhalation using vaporized CBD” value (inhalation of vaporized CBD) is given as 26-36%, the “bioavailability for intranasal administration” value (intranasal administration) is given as 34-46% and the oral bioavailability (oral administration) is given as 6-15%. The “bioavailability, sublingual administration” value (sublingual administration) was 20-35%.
